B1: CsAlaDC-I177Y (protein)
chain: MEGTVSVLSNVSKVELLSKCFDLITIPVEPLPPVVASNGVAGGETKKMKEKDIVLGKNVHTTSLTITEPDVDDDSTSDMEAFMAGVLVRYRKTLIEKTKYHLGYPFNLDLDYGPLAELQHFAINNLGDPFIESNYGVHSRQFEVGVLDWFARLWEIEQKEYWGYITNGGTEGNLHGYLVGREVFPDGIFYTSRESHYSIFKAARMYRMECVKVGTLINGEIDCADFKAKLLSNKDKPAIINLNIGTTVKGAVDDIDLVIQTLEECGFSHDRFYIHCDGALFGFMMPFLNRGPKITFKKPIGSVSVSGHKFMGCPTPCGVQITRLEHINALSRNVEYLASRDATITGSRNGHSPIILWYALNRKGFKGFQKEVQKCLRNAHYLKDRLREAGISAMLNELSSTVVFERPLDEEFVRRWQLACEGNMAHVIVMPNVTIEKLDEFLNELVQKRANWYNDGKAGPPCLAPDIGSENCDCDLHK

Legend:
hyaluronic acid (HA) = assay: Anti-wrinkle index test: HA content in UVA-stimulated fibroblasts (ELISA); format: cell-based, human; conditions: UVA 7 J/cm^2, samples 24 h, black tea fermentation liquor 6%, VC 80 µg/ml, GSH 20 m/ml
Description: (§1) Test of anti-wrinkle index of fibroblasts: fibroblasts were set with a blank control group, a model group, a positive control group and a sample group. The number of cells per well was controlled to be 5×10^5. After incubation at 37° C. for 24 h in a 5% CO2 incubator, the medium was removed and a small amount of PBS (pH of 7.4) was added to just cover the cells. The cells were stimulated with UVA at the UV radiation dose of 7 J/cm^2, and the blank control group was not radiated. PBS was discarded, samples with different concentrations were added, with the addition concentration of the black tea fermentation liquor being 6%, VC being 80 µg/ml, and GSH being 20 m/ml; and the cells were stimulated for 24 h. The cell culture supernatants were centrifuged for 15 min at 4° C. and 1000 g, and the supernatants were tested for MMP-1 content using human matrix metalloproteinase-1 (MMP-1) ELISA Kit. The cell suspension was diluted with PBS (pH of 7.2-7.4) to obtain a cell concentration of 1×10^6 cells/mL, and the cells were ruptured after repeated freeze-thaw treatment. The cells were centrifuged at 1000 g for 20 min to obtain the supernatant, which was used to test the CoLI content using a type I collagen (CoLI) test box, and test the HA content using human hyaluronic acid (HA) ELISA Kit. All operations were conducted in accordance with the kit instructions.

MMP-1 = assay: Anti-wrinkle index test: MMP-1 content in supernatant of UVA-stimulated fibroblasts (ELISA); format: cell-based, human; conditions: UVA 7 J/cm^2, samples 24 h, black tea fermentation liquor 6%, VC 80 µg/ml, GSH 20 m/ml
Description: as §1

type I collagen (CoLI) = assay: Anti-wrinkle index test: CoL I content in UVA-stimulated fibroblasts (type I collagen test box); format: cell-based; conditions: UVA 7 J/cm^2, samples 24 h, black tea fermentation liquor 6%, VC 80 µg/ml, GSH 20 m/ml
Description: as §1

[1] = tested on: theanine synthesis system; assay: High throughput screening of alanine decarboxylase CsAlaDC mutant enzyme in theanine synthesis system; format: biochemical, Escherichia coli
Description: First, a BL21-GMAS-CsAlaDC recombinant single colony was selected and loaded onto a 96-well plate, added into a 800 μL LB medium, and cultured at 37° C. and 900 r/min for 6 h; thereafter, IPTG (isopropyl-3-D-thiogalactoside) at a final concentration of 0.1 mM was added, and cultured at 24° C. for 16 h. Into the 96-well plate, 0.1 mL glycerol, 200 μL potassium glutamate of 50 mM, 200 μL alanine of 50 mM, 50 μL ATP of 10 mM, 80 μL MgCl2 of 5 mM, 85 μL DTT of 10 mM, and 85 μL Tris-HCl of 100 mM (pH 7.5) were sequentially added, to form a theanine synthesis system. The synthesis reaction was conducted for 24 h in a 30° C. water bath and repeated three times. […]
Color developing solution: 1.0 g/L soluble starch was weighed, mixed with distilled water, and boiling distilled water was added. […] After cooling, insoluble substances were filtered through a quantitative filter paper, and 1.0 g sodium hydroxide was added. […]
10 mL EP tubes were taken, 1 mL theanine sample and 4 mL sodium bicarbonate solution were added to one tube, and 5 mL sodium bicarbonate solution was added to the other tube, mixed and then stood for 5 min. […] Immediately after being mixed well, their absorbance values were respectively measured at the wavelength of 570 nm on the spectrophotometer by using distilled water as reference and with a cuvette. A high absorbance at 570 nm indicates a high theanine content. […]

Molecule	HA content (hyaluronic acid (HA))	MMP-1 content (MMP-1)	CoL I content (type I collagen (CoLI))	content of theanine catalyzed by the enzyme ([1]; BL21-GMAS-CsAlaDC recombinant, glutamate + alanine + ATP, no ethylamine, 30° C., 24 h) [µM]	theanine content higher than that of original enzyme CsAlaDC ([1]; compared with original enzyme CsAlaDC) [%]
O=C1O[C@H]([C@@H](O)CO)C(O)=C1O [VC]	4.38	20.42	2.45		
N[C@@H](CCC(=O)N[C@@H](CS)C(=O)NCC(=O)O)C(=O)O [GSH]	5.45	21.17	6.89		
B1				93.6	85

From US12453358B2, “Theanine-producing strain and use thereof in tea fermentation production” (GUANGZHOU ZHONGZHUANG BEAUTY COSMETICS CO., LTD, priority 2024, dated 2025)
